Molecular target: Recombinant human HSP90a (Homo sapiens, UniProt P07900)
Assay: radioligand filter binding test ([3H]17AAG competition) for HSP90 inhibition
Settings: competition with [3H]17AAG 0.08 μM, HSP90 1.5 μg/assay, 22° C., 30 min
From the text: Test Method for the Measurement of HSP90 Inhibitors
The binding of geldanamycin or 17-allylamino-17-demethoxygeldanamycin (17AAG) to HSP90 and competitive inhibition thereof can be utilized in order to determine the inhibitory activity of the compounds according to the invention (Carreras et al. 2003, Chiosis et al. 2002).
In the specific case, a radioligand filter binding test is used. The radioligand used here is tritium-labelled 17-allylaminogeldanamycin, [3H]17AAG. This filter binding test allows a targeted search for inhibitors which interfere with the ATP binding site.
Recombinant human HSP90a (E. coli expressed, 95% purity);
[3H]17AAG (17-allylaminogeldanamycin, [allylamino-2,3-^3H. Specific activity: 1.11×10^12 Bq/mmol (Moravek, MT-1717);
HEPES filter buffer (50 mM HEPES, pH 7.0, 5 mM MgCl2, BSA 0.01%) Multiscreen FB (1 μm) filter plate (Millipore, MAFBNOB 50).
The 96-well microtitre filter plates are firstly irrigated and coated with 0.1% of polyethylenimine.
The test is carried out under the following conditions:
Reaction temperature 22° C.
Reaction time: 30 min., shaking at 800 rpm
50 mM HEPES HCl, pH 7.0, 5 mM MgCl2, 0.01% (w/v) of BSA
At the end of the reaction, the supernatant in the filter plate is removed by suction with the aid of a vacuum manifold (Multiscreen Separation System, Millipore), and the filter is washed twice.
The filter plates are then measured in a beta counter (Microbeta, Wallac) with scintillator (Microscint 20, Packard).
“% of control” is determined from the “counts per minutes” values, and the IC-50 value of a compound is calculated therefrom.

CCN(CC)C(=O)c1cccc(-c2ccc3nc(N)nc(C(=O)N4Cc5ccccc5C4)c3c2)c1 [Compound A931]
IC50: 10 to 1000 nM

CN(C)C(=O)c1nc(N)nc2ccccc12 [Compound A5, 2-Amino-4-dimethylcarbamoylquinazoline]
IC50: > 10000 nM

Nc1nc(C(=O)N2Cc3ccccc3C2)c2cc(C#CCCO)ccc2n1 [Compound A997]
IC50: 10 to 1000 nM

Nc1nc(C(=O)N2Cc3ccccc3C2)c2cc(-c3ccccc3C(F)(F)F)ccc2n1 [Compound A262]
IC50: 10 to 1000 nM

Nc1nc(C(=O)N2Cc3ccccc3C2)c2cc(-c3cccc(O)c3)ccc2n1 [Compound A925, 2-Amino-6-(3-hydroxyphenyl)-4-(1,3-dihydroisoindol-2-ylcarbonyl)quinazoline]
IC50: 1000 to 10000 nM

Nc1nc(C(=O)N2Cc3ccccc3C2)c2cc(NCc3ccccc3)ccc2n1 [Compound A950]
IC50: 1000 to 10000 nM

Nc1nc(C(=O)N2Cc3ccccc3C2)c2cc(-c3ccccc3C(=O)N3CCNCC3)ccc2n1 [Compound A1007]
IC50: 10 to 1000 nM

CCc1ccc2nc(N)nc(C(=O)N(CC)CC)c2c1 [Compound A98, 2-Amino-6-ethyl-4-diethylcarbamoylquinazoline]
IC50: 1000 to 10000 nM

CN(C)CCOc1ccccc1-c1ccc2nc(N)nc(C(=O)N3Cc4ccccc4C3)c2c1 [Compound A986, {2-amino-6-[2-(2-dimethylaminoethoxy)phenyl]quinazolin-4-yl}-(1,3-dihydroisoindol-2-yl)methanone]
IC50: 10 to 1000 nM

CCN(C)C(=O)c1nc(N)nc2ccccc12 [Compound A6, 2-Amino-4-ethylmethylcarbamoylquinazoline]
IC50: > 10000 nM
